Entries after “also recorded” stand apart in the source; their conditions may differ.
Columns and labels:
[1] = system: mouse embryonic stem cells; test: genome-wide transcriptional profiling (U74Av2 chip); type: cell-based; conditions: TSA 300 nM, tubacin 2 μM
Description: Gene expression analysis of tubacin, TSA, and DMSO-treated mouse embryonic stem cells were performed according to the Affymetrix protocol using an U74Av2 chip as described in full (K. M. Koeller et al., Chemistry & Biology, 10 (5) (2003) pp. 397-410). Present calls were determined by accompanying software and data analysis, including array normalization and clustering, performed using dChip software [C. Li and W. H. Wong, Genome Biol. 2, 32 (2001); and E. E. Schadt, C. Li, B. Ellis and W. H. Wong, J. Cell Biochem. Suppl. 37, 120 (2001)].

HDAC6F = target: T1, HDAC6F (Homo sapiens, UniProt Q9UBN7); test: in vitro tubulin deacetylase (TDAC) assay, immunoprecipitated wild-type HDAC6F, MAP-stabilized tubulin; type: biochemical; conditions: TSA 300 nM or 1 μM; tubacin, niltubacin, trapoxin B 1 μM
T1 construct: made in house; host or cells: TAg Jurkat cells, transient transfection, anti-FLAG M2 immunoprecipitation
T1 sequence (Q9UBN7 1-1215): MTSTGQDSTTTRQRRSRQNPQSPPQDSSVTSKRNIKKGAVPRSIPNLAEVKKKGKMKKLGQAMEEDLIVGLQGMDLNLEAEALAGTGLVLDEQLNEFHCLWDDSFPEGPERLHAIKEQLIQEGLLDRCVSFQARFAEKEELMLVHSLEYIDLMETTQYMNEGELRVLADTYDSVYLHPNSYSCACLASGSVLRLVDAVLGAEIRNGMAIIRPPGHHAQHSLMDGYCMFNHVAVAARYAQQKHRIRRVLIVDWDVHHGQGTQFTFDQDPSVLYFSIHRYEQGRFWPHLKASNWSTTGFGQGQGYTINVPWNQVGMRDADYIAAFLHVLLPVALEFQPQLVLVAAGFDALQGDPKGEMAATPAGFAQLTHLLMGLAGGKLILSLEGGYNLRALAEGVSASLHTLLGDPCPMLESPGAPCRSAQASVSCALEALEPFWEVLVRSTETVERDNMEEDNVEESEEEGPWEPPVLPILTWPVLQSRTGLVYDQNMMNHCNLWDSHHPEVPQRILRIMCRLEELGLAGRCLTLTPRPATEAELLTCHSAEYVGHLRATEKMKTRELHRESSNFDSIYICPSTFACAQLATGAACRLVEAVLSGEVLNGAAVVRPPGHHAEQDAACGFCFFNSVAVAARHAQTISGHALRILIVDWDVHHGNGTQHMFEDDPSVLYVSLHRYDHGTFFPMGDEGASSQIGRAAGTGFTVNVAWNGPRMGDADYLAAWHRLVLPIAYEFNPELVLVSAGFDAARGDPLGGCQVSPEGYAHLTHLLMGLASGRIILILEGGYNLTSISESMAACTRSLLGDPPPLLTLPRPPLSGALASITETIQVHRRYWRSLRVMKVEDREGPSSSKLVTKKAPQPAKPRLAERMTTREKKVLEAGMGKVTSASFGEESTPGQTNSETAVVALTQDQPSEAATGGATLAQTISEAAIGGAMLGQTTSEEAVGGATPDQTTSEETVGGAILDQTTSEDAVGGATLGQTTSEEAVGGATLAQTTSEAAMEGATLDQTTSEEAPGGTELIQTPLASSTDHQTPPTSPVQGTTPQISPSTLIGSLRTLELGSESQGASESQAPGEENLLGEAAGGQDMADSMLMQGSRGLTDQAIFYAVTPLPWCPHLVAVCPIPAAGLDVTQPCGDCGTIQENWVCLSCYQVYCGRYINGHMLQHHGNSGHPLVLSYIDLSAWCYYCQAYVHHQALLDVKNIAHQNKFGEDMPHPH
Text: Tubulin and MAPs were isolated from bovine brain as described [See http://mitchison.med.harvard.edu/protocols/tubprep.html]. Whole brain and fractions from phosphocellulose chromatography were blotted for HDAC6 and acetylated α-tubulin. Cultured hippocampal neurons from dissociated 1-day old rat brains were transfected with an enhanced green fluorescent protein (EGFP)-actin construct at 4-5 days using the calcium phosphate method [E. N. Star, D. J. Kwiatkowski and V. N. Murthy, Nat. Neurosci. […] K. Miranti and M. E. Greenberg, J. Neurosci. […] Transfected cultures were allowed to grow for at least 48 h before the addition of experimental compounds.
[^3H]Acetate-incorporated histones were isolated from butyrate-treated HeLa cells as described [J. Taunton, C. […] Immunoprecipitates were incubated with acetylated histones and HDAC activity determined by scintillation counting as described [J. Taunton, C. […] TDAC assays were performed with immunoprecipitates using MAP-stabilized microtubules polymerized from MAP-rich tubulin fraction as described [C. […] Reactions were incubated (2 h) at 37° C., then incubated on ice (15 min).

SMILES	number of genes with altered expression above a 1.3-fold threshold [1]	inhibition of TDAC activity of wild-type HDAC6F (HDAC6F)
CC(/C=C/C(=O)NO)=C\[C@@H](C)C(=O)c1ccc(N(C)C)cc1 [TSA, trichostatin A, reference compound]	232 genes	inhibited by TSA (300 nM) or tubacin (1 μM); also recorded: inhibited α-tubulin deacetylation
O=C(CCCCCCC(=O)Nc1ccc([C@@H]2OC(c3ccc(CO)cc3)C[C@H](CSc3nc(-c4ccccc4)c(-c4ccccc4)o3)O2)cc1)NO (stereo partly shown) [tubacin]	no genes showed a significant alteration in expression	inhibited by TSA (300 nM) or tubacin (1 μM); also recorded: inhibited α-tubulin deacetylation

Source: patent publication US8178579B2, “Dioxanes and uses thereof” (President and Fellows of Harvard College, priority 2001, dated 2012)
